{"source": "patent US12054449B2", "about": "“Phenylcarbamate crystalline form and method for manufacturing the same” (BIO-PHARM SOLUTIONS CO., LTD., priority 2021, dated 2024)", "key": {"[1]": {"experiment": "Competitive slurry experiment for Pattern 1 and Pattern 3", "format": "physicochemical", "details": "4 days", "experimental": "To investigate the relative thermodynamic stability of various crystalline form patterns at room temperature and 50° C., competitive slurry experiments were carried out.\nA mixture of Pattern 1 and Pattern 3 (ED01748-028-003-00, 4×20 mg) was dispensed into vials. They were treated with 250 μL of a saturated solution of Pattern 1 (ED01748-006-001-00) in DIPE or heptane (50 mg of ED01748-006-001-00 was treated with DIPE or heptane and heated at 50° C., a portion was removed as needed, and the resulting product was filtered through a 0.45 μm syringe filter, thereby forming a slurry). The produced slurry was stirred at room temperature or 50° C. After analysis, the solid was returned to the vial, and an additional saturated solution was added as needed to maintain the slurry. After 4 days, the purity of the material was confirmed by UPLC."}, "[2]": {"experiment": "Change of crystalline form on standing or drying (XRPD)", "format": "physicochemical", "experimental": "XRPD patterns were detected by CuKα irradiation (30 kV, 10 mA) using a Bruker AXS D2 diffractometer. The analysis was performed using θ-θ geometry and a LynxEye detector at 5 to 42° 2θ with a step size of 0.024° 2θ at 0.1 sec/step.\nSamples were run at ambient conditions and prepared as flat specimens using powder received without grinding. About 1 to 2 mg of the sample was lightly pressed on a silicon wafer to obtain a flat surface."}}}
{"smiles": "C[C@H](OC(N)=O)[C@@H](O)c1ccccc1Cl", "note": "[ED01748-028-003-00, 1-(2-chlorophenyl)-(S)-1-hydroxypropyl-(S)-2-carbamate]", "values": [{"measurement": "UPLC purity of slurry material after 4 days", "setting": "[1]; DIPE samples, RT and 50° C.", "result": 98, "unit": "%"}, {"measurement": "UPLC purity of slurry material after 4 days", "setting": "[1]; heptane sample", "result": 98.5, "unit": "%"}]}
{"smiles": "C[C@H](OC(N)=O)[C@@H](O)c1ccccc1Cl", "note": "[Pattern 9, 1-(2-chlorophenyl)-(S)-1-hydroxypropyl-(S)-2-carbamate]", "values": [{"measurement": "change on standing o/n", "setting": "[2]; solid from Exp. 9, chloroform/Toluene", "result": "No change"}, {"measurement": "change on standing o/n", "setting": "[2]; solid from Exp. 13, DCM/Toluene", "result": "No change"}]}
{"smiles": "C[C@H](OC(N)=O)[C@@H](O)c1ccccc1Cl", "note": "[Pattern 7, 1-(2-chlorophenyl)-(S)-1-hydroxypropyl-(S)-2-carbamate]", "values": [{"measurement": "Behaviour on standing", "setting": "[2]", "result": "variable behaviour on standing"}]}
{"smiles": "C[C@H](OC(N)=O)[C@@H](O)c1ccccc1Cl", "note": "[Pattern 4, 1-(2-chlorophenyl)-(S)-1-hydroxypropyl-(S)-2-carbamate]", "values": [{"measurement": "Change in form by XRPD on drying", "setting": "[2]; brief drying whilst standing in the open vial", "result": "change in form by XRPD from Pattern 4 to a mixture of Pattern 1 and Pattern 3"}]}
{"smiles": "C[C@H](OC(N)=O)[C@@H](O)c1ccccc1Cl", "note": "[Pattern 6, 1-(2-chlorophenyl)-(S)-1-hydroxypropyl-(S)-2-carbamate]", "values": [{"measurement": "Form conversion by XRPD", "setting": "[2]; Pattern 6 material from anisole, stood overnight", "result": "converted to a mixture of Pattern 6 and Pattern 1"}, {"measurement": "Form conversion by XRPD", "setting": "[2]; Pattern 6 material from toluene", "result": "converted to a mixture of Pattern 6 and Pattern 3"}]}
{"smiles": "C[C@H](OC(N)=O)[C@@H](O)c1ccccc1Cl", "note": "[Pattern 8, 1-(2-chlorophenyl)-(S)-1-hydroxypropyl-(S)-2-carbamate]", "values": [{"measurement": "Change on standing", "setting": "[2]; Pattern 8 from chloroform and heptane", "result": "observed to change on standing"}, {"measurement": "change on standing o/n", "setting": "[2]; solid from Exp. 10, chloroform/Heptane", "result": "No change"}, {"measurement": "change on standing o/n", "setting": "[2]; solid from Exp. 14, DCM/Heptane", "result": "Small"}]}
